These results are taken from US20250302748A1, “METHOD FOR ENHANCING THE EFFICIENCY OF DRUG LOADING INTO EXTRACELLULAR VESICLES AND MEDICINAL PRODUCTS THEREOF” (Shine-On BioMedical CO., LTD., priority 2024, published 2025).

The subject of data set [1] is breast cancer cells (MDA-MB-231). The data set is described as follows: Orthotopic breast cancer animal model, IVIS luminescence. Type of data set: in vivo, mice. To be noted: day 49, two weeks after final administration; tail vein injections for six weeks; luminescence converted into tumor volume.
Source text: Referring to FIG. 9C, a breast cancer animal model was applied to evaluate the efficacy and biocompatibility of exosome 10 loaded with the target drug. In this experiment, the breast cancer animal model was constructed by injecting the breast cancer cells (MDA-MB-231) orthotopically into the mammary fat pad of the mice and then culturing the breast cancer cells into tumor. The mice were divided into drug treatment groups 1 to 3 and control group 1. The breast cancer animal model in drug treatment groups 1 to 3 were received the target drug directly (Dox-HCl), the liposome injection loaded with the target drug Dox-HCl (Dox@Lipo), and the exosomes 10 loaded with the target drug Dox-HCl (Dox@EXO) respectively; the control group 1 is the group treated with a placebo (PBS) (Ctrl).
Each group (groups 1-3 and control group 1) of the breast cancer animal model described above was received tail vein injections continuously for six weeks administration following the injection of breast cancer cells (MDA-MB-231). Tumor development was monitored and imaged using an in vivo imaging system (IVIS Imaging System), which measured tumor progression based on a luminescence signal of the tumor.
Data set [2] in a line: Safety study with serum biochemical analysis after third weekly administration. The format is in vivo, Immunocompetent mice. An excerpt: Furthermore, to confirm that exosome 10 retains its biocompatibility after loading the target drug and is safe for in vivo use, please refer to Table 5, an animal model is applied to evaluate the safety. Immunocompetent mice were divided into control group (Control), vehicle control group (Vehicle control), drug treatment group (Dox), and exosome treatment groups 1-3 (Dox@EXO 1-3). The groups above were weekly administered Lactated Ringer's solution, the exosomes 10, the target drug (Doxorubicin, Dox-HCl), and the exosomes 10 loaded with the target drug Dox-HCl (Dox@EXO) in concentrations of 2 mg/kg, 6 mg/kg, and 12 mg/kg respectively. After receiving the third administration, blood samples were collected for serum biochemical analysis to monitor organ function.

[3] abbreviates: 12 mg/kg weekly, after third administration, serum.

Where a name gives a salt, the structure may show the parent alone.

Consider `COc1cccc2c1C(=O)c1c(O)c3c(c(O)c1C2=O)C[C@@](O)(C(=O)CO)C[C@@H]3O[C@H]1C[C@H](N)[C@H](O)[C@H](C)O1` [Dox-HCl, Doxorubicin hydrochloride], for which the “Inhibition rate of tumor growth” value in data set [1] amounted to 73.8%. Besides, in data set [2] (setting [3]), the “ALB (Albumin)” value is reported as 2.68 g/dL, the “ALP (Alkaline Phosphatase)” value was found to be 182.52 U/L, the ALT was determined as 29.52 U/L and the “AMY (Amylase)” value is given as 3424.8 U/L. In data set [2] (setting [3]), the AST worked out at 76.88 U/L, the “CK (Creatine kinase)” value is 236.06 U/L and the “LDH (Lactate Dehydrogenase)” value was found to be 648.28 U/L. Also, in data set [2] (Dox 12 mg/kg, Dox@EXO 2, 6 and 12 mg/kg), the “Difference in serum biochemical parameters versus control group (One-way ANOVA)” value is “significant differences in liver function markers such as albumin (ALB) and alkaline phosphatase (ALP)”.
